Measured values as given in patent US20070111251A1, “Chemical address tags” (priority 2003, published 2007).

System: HeLa cells
Experiment: Kinetic imaging of NBD-triazine probe uptake and sequestration, fitted to nested two-compartment transport model
Assay type: cell-based
Settings: median over optimal solutions within 5% of the best fit
Protocol: In living cells, image data was simultaneously acquired with an automated, high-content, kinetic screening instrument equipped with an environmental chamber (see, e.g., V. C. Abraham, D. L. Taylor and J. R. Haskins, Trends in Biotechnology 22, 15 (2004); herein incorporated by reference in its entirety), as cells were incubated with the fluorescent molecules and after removal of extracellular probe. Data was analyzed off line, using an image analysis algorithm to measure the statistical pixel intensity distribution associated with fluorescence probe sequestration in the perinuclear region (see, e.g., FIG. 21; see also, e.g., G. J. Ding et al., Journal of Biological Chemistry 273, 28897 (1998); herein incorporated by reference in its entirety). Data was parametrized with a nested, two-compartment, transport model (see, e.g., W. E. Evans, J. J. Schentag and W. J. Jusko., Applied Pharmacokinetics: Principles of Therapeutic Drug Monitoring (Lippincott Williams & Wilkins, Vancouver, W.A., 1992); herein incorporated by reference in its entirety), using a statistical link function to relate the kinetic coefficient of variation (CV) of pixel intensities in the images with the concentration of probe in vesicles and cytoplasm. Optimal kinetic parameters fitting the experimental data for each probe to the system described by the two-compartment model and statistical link function were determined using the simulated annealing technique (see, e.g., M. Pincus., Oper. Res. 18, 1225 (1979); herein incorporated by reference in its entirety). The present invention is not limited to a particular mechanism. Indeed, an understanding of the mechanism is not necessary to practice the present invention.
To assess how well the model accounts for all the different kinetic traces acquired, a “PVE” (proportion of variance explained) by the model was calculated. The PVE is one minus the ratio of the sum of squared differences between observed and fitted values to the sum of squared differences between observed values and their mean. PVE values close to one indicate good fit to the nested two-compartment model. The average PVE across the probes was 0.92, with >50% of the probes yielded PVE values […]. The present invention is not limited to a particular mechanism. Indeed, an understanding of the mechanism is not necessary to practice the present invention.
Cell culture. HeLa cells were grown in RPMI+10% FCS in a 5% CO2 atmosphere at 37° C. and plated in 96-well plates at a density of 3000 cells/well 24 hours prior to the start of the experiment.
Kinetic Imaging. For influx experiments, cells on 96-well plates were switched to imaging media consisting of RPMI containing 1.0 mM Bromophenol Blue—a soluble, cell-impermeant chromophore used to suppress excitation and emission of extracellular (background) dye fluorescence-, 10 μM probe and 0.1 μM Hoescht 33258 to label the cell nuclei. Plates were then transferred to a KineticScan instrument (Cellomics, Inc., Pittsburgh, Pa.), which contains an environmentally controlled CO2/temperature/humidity chamber, and data was acquired with a 20× objective lens. Images acquisition began approximately 10 min after dye addition, using the Hoescht channel to acquire nuclear images and FITC channel to acquire the NBD image. Plate-scanning mode was used for scanning, in which the instrument builds time-stacks of images by scanning the plate multiple times, returning to the same site of the plate at every scan. For efflux experiments, dye-containing media was removed from the wells of the plate. The wells were washed twice with fresh RPMI medium, imaging media was added, and image acquisition restarted 7 min after the dye-containing media was removed. The last time points of the influx experiment served as the first time point of the efflux experiment. Plates were scanned for approximately two hours in the influx experiment and six hours for the efflux experiment, with each well imaged on average every 7 minutes. […]

median Pap(cyto) (apparent partition coefficient between extracellular medium and cytosol) | median Pap(ves) (apparent partition coefficient between cytosol and intracellular vesicles, k(ves)in/k(ves)out) | SMILES
79.42 | 0.34 | CC(C)Nc1nc(NCCCCCCNc2ccc([N+](=O)[O-])c3nonc23)nc(NCCC(c2ccccc2)c2ccccc2)n1 [Compound F2]
21.91 | 9.79 | CCCCCCCCNc1nc(NCCCCCCNc2ccc([N+](=O)[O-])c3nonc23)nc(NCCC(c2ccccc2)c2ccccc2)n1 [Compound F3]
1.89 | 43.56 | CC1CCC(Nc2nc(NCCCCCCNc3ccc([N+](=O)[O-])c4nonc34)nc(NCCC(c3ccccc3)c3ccccc3)n2)CC1 (stereo not shown) [Compound F4]
6.71 | 21.53 | CC1CCCCC1Nc1nc(NCCCCCCNc2ccc([N+](=O)[O-])c3nonc23)nc(NCCC(c2ccccc2)c2ccccc2)n1 (stereo not shown) [Compound F5]
6.76 | 19.41 | O=[N+]([O-])c1ccc(NCCCCCCNc2nc(NCCC(c3ccccc3)c3ccccc3)nc(NCC3CCCCC3)n2)c2nonc12 [Compound F6]
3.33 | 8.01 | O=[N+]([O-])c1ccc(NCCCCCCNc2nc(NCCC(c3ccccc3)c3ccccc3)nc(NC3CCCCC3)n2)c2nonc12 [Compound F7]
65.86 | 10.07 | CC(C)CCNc1nc(NCCCCCCNc2ccc([N+](=O)[O-])c3nonc23)nc(NCCC(c2ccccc2)c2ccccc2)n1 [Compound F8]
12.30 | 12.14 | CCCCNc1nc(NCCCCCCNc2ccc([N+](=O)[O-])c3nonc23)nc(NCc2ccc(C)cc2)n1 [Compound G1]
211.16 | 0.28 | Cc1ccc(CNc2nc(NCCCCCCNc3ccc([N+](=O)[O-])c4nonc34)nc(NC(C)C)n2)cc1 [Compound G2]
0.95 | 43.97 | CCCCCCCCNc1nc(NCCCCCCNc2ccc([N+](=O)[O-])c3nonc23)nc(NCc2ccc(C)cc2)n1 [Compound G3]
23.97 | 4.01 | Cc1ccc(CNc2nc(NCCCCCCNc3ccc([N+](=O)[O-])c4nonc34)nc(NC3CCC(C)CC3)n2)cc1 (stereo not shown) [Compound G4]
57.45 | 8.94 | Cc1ccc(CNc2nc(NCCCCCCNc3ccc([N+](=O)[O-])c4nonc34)nc(NC3CCCCC3C)n2)cc1 (stereo not shown) [Compound G5]
35.66 | 10.12 | Cc1ccc(CNc2nc(NCCCCCCNc3ccc([N+](=O)[O-])c4nonc34)nc(NCC3CCCCC3)n2)cc1 [Compound G6]

The next lines start with the molecule.

SMILES | median Pap(cyto) (apparent partition coefficient between extracellular medium and cytosol) | median Pap(ves) (apparent partition coefficient between cytosol and intracellular vesicles, k(ves)in/k(ves)out)
COc1ccc(CCNc2nc(NCCCCCCNc3ccc([N+](=O)[O-])c4nonc34)nc(NC3CCC(C)CC3)n2)cc1 (stereo not shown) [Compound D4] | 99.03 | 0.22
COc1ccc(CCNc2nc(NCCCCCCNc3ccc([N+](=O)[O-])c4nonc34)nc(NC3CCCCC3C)n2)cc1 (stereo not shown) [Compound D5] | 9.15 | 13.58
COc1ccc(CCNc2nc(NCCCCCCNc3ccc([N+](=O)[O-])c4nonc34)nc(NCC3CCCCC3)n2)cc1 [Compound D6] | 141.76 | 0.24
COc1ccc(CCNc2nc(NCCCCCCNc3ccc([N+](=O)[O-])c4nonc34)nc(NC3CCCCC3)n2)cc1 [Compound D7] | 8.37 | 28.56
COc1ccc(CCNc2nc(NCCCCCCNc3ccc([N+](=O)[O-])c4nonc34)nc(NCCC(C)C)n2)cc1 [Compound D8] | 236.99 | 0.24
COc1ccc(CCNc2nc(NCCCCCCNc3ccc([N+](=O)[O-])c4nonc34)nc(NCCc3ccccc3)n2)cc1 [Compound D10] | 9.41 | 13.79
CC(C)Nc1nc(NCCCCCCNc2ccc([N+](=O)[O-])c3nonc23)nc(NCc2cccc(F)c2)n1 [Compound E2] | 49.62 | 8.43
CCCCCCCCNc1nc(NCCCCCCNc2ccc([N+](=O)[O-])c3nonc23)nc(NCc2cccc(F)c2)n1 [Compound E3] | 4.14 | 19.86
CC1CCC(Nc2nc(NCCCCCCNc3ccc([N+](=O)[O-])c4nonc34)nc(NCc3cccc(F)c3)n2)CC1 (stereo not shown) [Compound E4] | 11.91 | 16.46
CC1CCCCC1Nc1nc(NCCCCCCNc2ccc([N+](=O)[O-])c3nonc23)nc(NCc2cccc(F)c2)n1 (stereo not shown) [Compound E5] | 5.98 | 29.55
O=[N+]([O-])c1ccc(NCCCCCCNc2nc(NCc3cccc(F)c3)nc(NCC3CCCCC3)n2)c2nonc12 [Compound E6] | 10.29 | 20.28
O=[N+]([O-])c1ccc(NCCCCCCNc2nc(NCc3cccc(F)c3)nc(NC3CCCCC3)n2)c2nonc12 [Compound E7] | 8.70 | 16.57
CC(C)CCNc1nc(NCCCCCCNc2ccc([N+](=O)[O-])c3nonc23)nc(NCc2cccc(F)c2)n1 [Compound E8] | 12.09 | 11.21
O=[N+]([O-])c1ccc(NCCCCCCNc2nc(NCCc3ccccn3)nc(NCc3cccc(F)c3)n2)c2nonc12 [Compound E9] | 225.98 | 0.37
O=[N+]([O-])c1ccc(NCCCCCCNc2nc(NCCc3ccccc3)nc(NCc3cccc(F)c3)n2)c2nonc12 [Compound E10] | 5.10 | 14.90
O=[N+]([O-])c1ccc(NCCCCCCNc2nc(NCCc3ccccc3)nc(NCCC(c3ccccc3)c3ccccc3)n2)c2nonc12 [Compound F10] | 1.44 | 53.44
